Results as given in ChEMBL document CHEMBL1201862, “PubChem BioAssay data set” (2004).
Calls of active or inactive are those of the source.

Assays:
[1] = growth suppression of PTEN-null colon cells, dose response, cell-based, HCT116 PTEN knockout (AID 1047); format: functional;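 further: HCT116 colon tumor cells with PTEN knocked out; cells exposed to compound for 60 hours before readout; potency for loss of cell viability measured by luminescence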
[2] = growth suppression of beta-catenin-knockout colon cells, dose response, cell-based, HCT116, human colon tumor (AID 1045); format: functional;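 further: HCT116 colon tumor cells with beta catenin knocked out; cells exposed to compound for 60 hours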
[3] = molecular target: T1, RNA-binding protein pos-1 (Caenorhabditis elegans, UniProt G5EF15); assay: inhibitors of POS-1/mex-3 RNA binding, dose response, biochemical, fluorescence polarization (AID 1964);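 further: purified POS-1 fused to maltose binding protein made in E. coli; potency of compounds blocking POS-1 binding to fluorescent RNA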
T1 sequence (G5EF15 whole entry): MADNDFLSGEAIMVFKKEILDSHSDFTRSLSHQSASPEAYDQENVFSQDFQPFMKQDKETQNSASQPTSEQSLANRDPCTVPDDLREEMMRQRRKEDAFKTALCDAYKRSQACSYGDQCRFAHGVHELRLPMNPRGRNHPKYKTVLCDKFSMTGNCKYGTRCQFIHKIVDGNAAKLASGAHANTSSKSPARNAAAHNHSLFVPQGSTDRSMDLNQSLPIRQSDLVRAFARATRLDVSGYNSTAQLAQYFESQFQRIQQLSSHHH

[4] = A cytotoxicity screen of small molecule inhibitors of the PhoP region in Salmonella typhi identified in the primary screen. [Related pubchem assays: 1850, 1864, 1985 ]; format: functional
cells [5] = format: functional, cell-based
cells [6] = format: functional, cell-based; remark: listed apart in the source
[7] = molecular target: T2, DNA repair and recombination protein RAD54-like (Homo sapiens, UniProt Q92698); assay: inhibitors of human RAD54 branch migration, confirmation, biochemical, fluorescence, cherry-picked samples, dose series (AID 651657); format: functional
T2 sequence (Q92698 whole entry): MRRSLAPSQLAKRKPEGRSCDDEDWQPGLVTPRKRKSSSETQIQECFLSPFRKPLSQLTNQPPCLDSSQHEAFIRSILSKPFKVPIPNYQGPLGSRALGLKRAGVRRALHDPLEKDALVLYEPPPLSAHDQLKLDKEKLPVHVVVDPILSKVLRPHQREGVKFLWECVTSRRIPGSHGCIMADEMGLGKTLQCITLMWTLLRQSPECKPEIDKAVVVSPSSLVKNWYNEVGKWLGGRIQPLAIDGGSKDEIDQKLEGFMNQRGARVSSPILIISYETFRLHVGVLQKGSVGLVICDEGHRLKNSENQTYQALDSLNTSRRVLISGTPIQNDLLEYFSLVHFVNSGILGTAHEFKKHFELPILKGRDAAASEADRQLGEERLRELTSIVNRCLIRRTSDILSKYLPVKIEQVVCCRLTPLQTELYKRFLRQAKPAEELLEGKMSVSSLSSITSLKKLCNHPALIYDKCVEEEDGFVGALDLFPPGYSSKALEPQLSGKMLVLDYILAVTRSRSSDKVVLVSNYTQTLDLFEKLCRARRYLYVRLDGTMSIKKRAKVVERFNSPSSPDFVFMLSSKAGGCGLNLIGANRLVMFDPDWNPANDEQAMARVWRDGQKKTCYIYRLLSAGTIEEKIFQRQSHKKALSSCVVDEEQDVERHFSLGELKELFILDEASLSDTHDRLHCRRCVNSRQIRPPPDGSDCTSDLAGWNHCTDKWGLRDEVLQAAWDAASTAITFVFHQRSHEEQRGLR

[8] = HEp-2 cell cytotoxicity, dose response, cytotoxicity control for RSV inhibitor project, HTS (AID 2410); format: functional; conditions: human respiratory syncytial virus
[9] = inhibitors of firefly luciferase expression or activity, dose response, H4 neuroglioma cells, luminescence (AID 1990); format: functional, cell-based
[10] = tested on: Streptococcus sp. 'group A'; assay: growth inhibition of control SK(-) GAS strain, dose response, counter-screen for streptokinase expression inhibitor project, luminescence, kanamycin, BacTiterGlo, confirmation (AID 1900); format: functional, organism-based
[11] = Luminescence Cell-Based Dose Response HTS to Identify Inhibitors of 5'UTR Stem-Loop Driven Prion Protein mRNA Translation in H4 Neuroglioblastoma Cells. [Related pubchem assays: 1827 (Project Summary), 1813 (Primary HTS)]; format: functional
Streptokinase A = molecular target: T3, Streptokinase A (Streptococcus pyogenes serotype M1, UniProt P10520); assay: S. pyogenes streptokinase expression inhibitors, potency, dose response, plasminogen activation absorbance, OD405 (AID 1914); format: functional, Streptococcus pyogenes M1 GAS;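 further: secreted streptokinase activity via plasminogen activation per viability signal from cell pellet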
T3 sequence (P10520 whole entry): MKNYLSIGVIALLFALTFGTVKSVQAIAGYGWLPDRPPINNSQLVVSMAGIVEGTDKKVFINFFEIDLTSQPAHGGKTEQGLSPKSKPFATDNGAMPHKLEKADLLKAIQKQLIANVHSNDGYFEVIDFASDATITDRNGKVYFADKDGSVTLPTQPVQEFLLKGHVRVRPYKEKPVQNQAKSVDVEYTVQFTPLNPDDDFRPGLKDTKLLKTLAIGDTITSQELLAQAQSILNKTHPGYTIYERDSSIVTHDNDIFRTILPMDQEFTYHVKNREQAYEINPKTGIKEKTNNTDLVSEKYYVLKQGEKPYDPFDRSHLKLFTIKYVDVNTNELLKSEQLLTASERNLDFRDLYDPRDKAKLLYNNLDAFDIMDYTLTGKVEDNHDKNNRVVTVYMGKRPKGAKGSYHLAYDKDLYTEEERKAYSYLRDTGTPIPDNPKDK

Streptococcus = assay: Group A Streptococcus viability loss, dose response, counter-screen for streptokinase expression inhibitor project, luminescence, BacTiterGlo (AID 1915); format: functional, organism-based;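 further: potency for reduction of bacterial viability or growth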
cells [12] = assay: cells
[13] = molecular target: T4, Heat shock factor protein 1 (Mus musculus, UniProt P38532); assay: HSF1 potentiators in luciferase reporter cells, confirmation, cell-based, NIH3T3, luminescence, dose retest (AID 435004); format: functional;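 further: stress induced by proteasome inhibitor MG132 added 30 min after compound; luciferase reporter driven by HSF1 response element in NIH3T3 cells; actives raise luminescence as potentiators of the MG132 stress response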
T4 sequence (P38532 whole entry): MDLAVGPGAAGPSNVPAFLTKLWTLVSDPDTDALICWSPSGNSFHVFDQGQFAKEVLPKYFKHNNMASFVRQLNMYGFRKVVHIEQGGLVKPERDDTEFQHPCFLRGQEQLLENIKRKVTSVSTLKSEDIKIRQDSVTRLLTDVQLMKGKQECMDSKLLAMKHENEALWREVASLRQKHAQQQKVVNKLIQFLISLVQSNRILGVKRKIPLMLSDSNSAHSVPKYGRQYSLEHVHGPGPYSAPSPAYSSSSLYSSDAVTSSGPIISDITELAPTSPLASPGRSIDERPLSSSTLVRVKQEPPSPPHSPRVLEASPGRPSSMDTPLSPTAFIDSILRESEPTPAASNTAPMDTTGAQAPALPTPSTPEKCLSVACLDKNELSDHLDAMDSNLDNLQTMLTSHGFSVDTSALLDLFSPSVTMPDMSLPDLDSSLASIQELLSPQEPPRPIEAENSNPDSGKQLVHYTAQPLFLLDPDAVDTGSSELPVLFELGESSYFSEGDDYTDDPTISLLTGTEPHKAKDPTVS

Protein skinhead-1 = molecular target: T5, Protein skinhead-1 (Caenorhabditis elegans, UniProt P34707); format: functional
T5 sequence (P34707 whole entry): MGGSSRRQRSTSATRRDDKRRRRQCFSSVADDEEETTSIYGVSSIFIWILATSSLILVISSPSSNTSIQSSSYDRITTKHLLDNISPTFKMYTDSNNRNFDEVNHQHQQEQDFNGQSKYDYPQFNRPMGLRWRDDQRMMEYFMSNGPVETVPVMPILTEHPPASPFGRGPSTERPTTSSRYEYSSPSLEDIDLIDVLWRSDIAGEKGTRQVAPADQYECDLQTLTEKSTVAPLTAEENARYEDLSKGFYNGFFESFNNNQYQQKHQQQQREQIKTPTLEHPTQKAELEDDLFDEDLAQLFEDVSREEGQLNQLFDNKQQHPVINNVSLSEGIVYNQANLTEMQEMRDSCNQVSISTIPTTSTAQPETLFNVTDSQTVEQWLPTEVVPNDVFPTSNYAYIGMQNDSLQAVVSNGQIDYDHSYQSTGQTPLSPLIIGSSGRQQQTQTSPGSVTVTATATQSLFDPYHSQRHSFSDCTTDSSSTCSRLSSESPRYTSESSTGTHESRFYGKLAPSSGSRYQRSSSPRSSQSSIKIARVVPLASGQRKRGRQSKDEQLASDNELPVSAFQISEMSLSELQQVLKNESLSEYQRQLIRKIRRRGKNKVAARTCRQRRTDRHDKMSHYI

[14] = THP-1 cell cytotoxicity, dose response, cytotoxicity control for non-replicating M. tuberculosis project (AID 489025); format: functional
cells [15] = format: functional
[16] = inhibitors of SNCA 5'UTR-driven reporter translation, confirmation, H4 neuroglioma cells, luminescence (AID 1988); format: functional, cell-based
INS1 = assay: beta cell apoptosis inhibitors, cytokine rescue, dose response, luminescence, retest (AID 449756); format: functional, cell-based; conditions: Rattus norvegicus;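 further: cell death triggered by IL-1 beta plus TNF-alpha plus IFN-gamma mixture; protective hits raise ATP signal compared with cytokine alone wells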
[17] = ZM109 Env clade C HIV-1 fusion inhibitors, dose response, HeLa effector, CEM target cells, luciferase, cherry-pick (AID 652058); format: functional, cell-based

CCCCNC(=O)CCn1c(=O)c2ccccc2n(Cc2ccc(Cl)cc2)c1=O
EC50 [1]: 18 µM (active)
EC50 [2]: 19.5 µM (active)

O=C(NNC(=O)c1cc(Cl)ccc1[N+](=O)[O-])c1csc(N2CCOCC2)n1
EC50 [3]: > 300 µM (inconclusive)

COc1ccc(Cn2c(=N)c(C(=O)NCC3CCCO3)cc3c(=O)n4ccccc4nc32)cc1 (stereo unspecified)
EC50 [4]: > 50 µM (active)

Cc1occc1C(=O)NC1CCCCCC1
EC50 (cells [5]): > 350 µM (not active)
EC50 (cells [6]): 73 µM (active)

COC(=O)C1=C(C)N(Cc2ccc(OC)cc2)C(=O)C1
EC50 (cells [5]): > 350 µM (not active)
EC50 (cells [6]): > 350 µM (not active)

Cc1cc(Nc2ccc3c(c2)OCCO3)c2cccc(C)c2n1
AC50 [7]: 13.9 µM (active)

CCc1nc(SCC(=O)N2c3ccccc3CC2C)c2c(C)c(C)sc2n1 (stereo unspecified)
CC50 [8]: 5.39 µM (active)
EC50 [9]: > 120 µM (not active)
EC50 [10]: 13.8 µM (active)
EC50 [11]: 18 µM (active)
EC50 (Streptokinase A): 57.8 µM (active)
EC50 (Streptococcus): > 150 µM (not active)
IC50 (cells [12]): 3.55 µM (active)

CN(C)c1ccc(NC(=O)/C=C/c2c(Cl)cccc2Cl)cc1
CC50 [8]: 17.3 µM (active)
IC50 (cells [12]): 10.2 µM (active)

Cc1ccc(S/C=C\C(=O)c2ccccc2)cc1
EC50 [1]: 98.5 µM (active)
EC50 [2]: 33.1 µM (active)
EC50 [13]: 8.81 µM (active)
IC50 (Protein skinhead-1): 32.9 µM (active)

COc1ccc(S(=O)(=O)N2CCOC2CNC(=O)C(=O)NCc2ccc3c(c2)OCO3)cc1OC (stereo unspecified)
EC50 (cells [5]): > 350 µM (not active)
EC50 (cells [6]): > 350 µM (not active)

N=C(NOS(=O)(=O)c1ccccc1)c1cccnc1
EC50 [4]: > 50 µM (active)

CCOC(=O)c1c(C)[nH]c(C(=O)OCC(=O)Nc2cc(C)c(Cl)cc2OC)c1C
EC50 [1]: 12.8 µM (active)
EC50 [2]: 16.2 µM (active)

O=[N+]([O-])c1ccc(CNc2cccc(Cl)c2)s1
CC50 [14]: > 40 µM (active)
IC50 (cells [15]): 48.6 µM (active)

COc1ccc(C(=O)CN2CCN(CCN3C(=O)c4cccc5cccc(c45)C3=O)CC2)cc1
EC50 [9]: 13.4 µM (active)
EC50 [11]: > 120 µM (not active)
EC50 [16]: 15.3 µM (active)
AC50 [7]: 8.03 µM (active)

O=C(CSc1nnc(-c2ccccc2Cl)o1)N1CCOCC1
EC50 (cells [5]): > 350 µM (not active)
EC50 (cells [6]): > 350 µM (not active)

CCOC(=O)c1cc(-c2ccncc2)nc2c1c(C)nn2-c1ccccn1
EC50 [4]: > 50 µM (active)
AC50 [7]: 30.4 µM (active)

Cc1nc(C)c(-c2ccc(SCc3ccccc3F)nn2)s1
EC50 [4]: > 50 µM (active)

Cc1nc2ccccc2c2oc(C(=O)NCCN3CCN(C)CC3)cc12
AC50 [7]: 39.9 µM (active)

NC(=O)c1c(NC(=O)CSc2nc(N)cc(O)n2)sc2c1CCCC2
EC50 [4]: > 50 µM (active)

COc1cccc(C(=O)SC2=NCCS2)c1
EC50 (cells [5]): > 350 µM (not active)
EC50 (cells [6]): 55.8 µM (active)

CC(=O)Oc1ccc(N(C(C)=O)S(=O)(=O)c2cccs2)c2ccccc12
CC50 [14]: 26.1 µM (active)
AC50 (INS1): 8.83 µM (active)

COC(=O)C1=C(C)N(Cc2ccco2)C(=O)N[C@H]1c1cccc(C(F)(F)F)c1
CC50 [8]: 25.6 µM (active)
IC50 (cells [12]): 1.47 µM (active)

CCN(CC)CCN=C(S)Nc1ccc2nc(N3CCN(CC)CC3)cc(C)c2c1
AC50 [7]: 15.3 µM (active)

COc1cccc(S(=O)(=O)N[C@@H]2CC[C@H](CCN)O[C@H]2CO)c1
AC50 [17]: 1.26 µM (active)

O=C(N/N=C/c1cccnc1)c1ccc([N+](=O)[O-])cc1Cl
EC50 [4]: > 50 µM (active)

CCCCN(CC)S(=O)(=O)c1ccc(C(=O)/N=c2\sc3cc(NC(C)=O)ccc3n2C)cc1
EC50 [1]: 17.1 µM (active)
EC50 [2]: 10.2 µM (active)

Cc1cccc(NS(=O)(=O)c2ccc(C)c(C(=O)OCC(=O)Nc3cc(C)on3)c2)c1
CC50 [8]: 23.9 µM (active)
EC50 [9]: 41.1 µM (active)
EC50 [11]: > 120 µM (not active)
EC50 [16]: 28.1 µM (active)
IC50 (cells [12]): 30.8 µM (active)
